{
  "source": "patent US20250082630A1",
  "about": "“METHODS OF TREATING BRAIN TUMOURS AND NEUROBLASTOMAS” (AstraZeneca AB, priority 2021, published 2025)",
  "key": {"SJ-G2 IDH1mt ATRXmt": {"tested_on": "SJ-G2 IDH1mt ATRXmt", "assay": "cells", "conditions": "SJ-G2, read-out: Compound 20 IC50", "protocol": "(§1) To evaluate the activity and potency of the PARP inhibitors described herein in combination with the standard of care chemotherapy Temozolamide (TMZ), ionizing radiation (IR) and the emerging chemotherapy VAL-083, U87, SJG2 and BT245 glioblastoma cells were assayed. Parental U87 cell lines were obtained from the AstraZeneca Global Cell Bank in Alderley Park, UK and the isocistrate dehydrogenase 1 mutant cell line (IDH1 mt R1 32H) was licensed in from ATCC. The SJ-G2 (ATRX mutant) and BT245 (H3K27M mutant) cell lines were obtained from The Research Institute of the McGill University Health Centre, Montreal, QC H4A 3J1, Canada. IDH1R132 mutation was induced in SJG2 cell line to generated isogenic pair (SJG2 IDH1mt and SJG2 IDH1 wt). […]\n(§2) For the nuclear count end point assay, cells were fixed for ˜15 minutes (min) by the addition of 50 μl per well of Formaldehyde (Sigma-Aldrich F8775). […] The images were acquired using CellInsight CX5 (Thermo Fisher) and analysed by measuring the total number of hoechst stained nuclei. The number of nuclei (% confluence) of the drug treated wells were normalised to the DMSO control and the growth inhibition was calculated using the combenefit software (Di Veroli et al., 2016)."}, "[1]": {"tested_on": "U87 IDH1 wt and IDH1 mt isogenic pairs", "assay": "Combination assay PARP inhibitor with VAL-083, U87 isogenic pairs", "assay_type": "cell-based", "protocol": "as §1, §2"}, "BRCA2 (−/−) DLD1 cells": {"tested_on": "BRCA2 (−/−) DLD1 cells", "assay": "PARP proliferation assay (7 day compound dosing), BRCA2 (−/−) DLD1", "assay_type": "cell-based", "conditions": "Homo sapiens, DLD-1, 168 h, read-out: BRCA2 −/− DLD-1 prolif. 7 d IC50", "protocol": "(§3) DLD1 and BRCA2 (−/−) DLD1 cells were harvested to a density of 5000 cells/ml and 2.5E4 cells/ml respectively in complete media, 40 μL/well seeded into 384-well plates (Greiner, Kremsmunster, Austria; 781090) using a Multidrop Combi then incubated at 37° C., 5% CO2 overnight. Next day (Day 1) using a Multidrop Combi add sytox green (5ul, 2 uM) and saponin (10 ul, 0.25% stock) to a day 0 plate, seal the plate using a black adhesive lid and incubate for >3 h at it. Cells were imaged using Cell Insight (Thermo Fisher) fitted with a 4x objective. Test compounds are added using an Echo 555 and placed in incubator maintained at 37° C., 5% CO2 and incubated for 7 days. On Day 8 add sytox green (5ul, 2 uM) and then saponin (10 ul, 0.25% stock) to plates, seal the plate using a black adhesive lid and incubate for >3 h at it. Read all cells on the Cell Insight with 4× Objective. The rate of proliferation is determined in Genedata by assessing the total cell number output from the Cell Insight for Day 0 and Day 8 plates."}, "U87 IDH1mt ATRXwt": {"tested_on": "U87 IDH1mt ATRXwt", "assay": "Monotherapy treatment, U87 IDH1mt ATRXwt", "assay_type": "cell-based", "conditions": "read-out: Compound 20 IC50", "protocol": "as §1, §2"}, "SJ-G2 IDH1wt ATRXmt": {"tested_on": "SJ-G2 IDH1wt ATRXmt", "assay": "Monotherapy treatment, SJ-G2 IDH1wt ATRXmt", "assay_type": "cell-based", "protocol": "DMSO served as a vehicle control.\nThe plates were washed again and PBS was added."}, "[2]": {"tested_on": "PARylation in BT245 H3K27M paediatric glioma model", "assay": "PARylation inhibition in paediatric glioma model", "assay_type": "cell-based"}, "[3]": {"tested_on": "SJ-G2 IDH1 wt and IDH1mt isogenic pairs", "assay": "Combination assay PARP inhibitor with TMZ, SJ-G2 isogenic pairs", "assay_type": "cell-based", "protocol": "as §1, §2"}, "[4]": {"tested_on": "PARylation in U87 isogenic pair", "assay": "PARylation inhibition in U87 isogenic pair", "assay_type": "cell-based", "conditions": "data not shown"}, "DLD1 cells": {"tested_on": "DLD1 cells", "assay": "PARP proliferation assay (7 day compound dosing), WT DLD1", "assay_type": "cell-based", "conditions": "Homo sapiens, DLD-1, 168 h, read-out: WT DLD-1 prolif. 7 d IC50", "protocol": "as §3"}, "[5]": {"tested_on": "BT245 H3K27M paediatric glioma cells", "assay": "Combination assay PARP inhibitor with ionizing radiation (colony formation)", "assay_type": "cell-based", "conditions": "0.9 Gy, multiple doses of the inhibitor", "protocol": "DMSO served as a vehicle control. […] Next, cells were fixed and stained using the Sulforhodamin B acid form (SRB) [Sigma, 341738-5g] reconstituted in 1% Acetic Acid as the stain is added straight after fixation without any washing step which limits cell detachment. Plates with stained colonies were scanned with the GelCount colony counter (Oxford OPTRONIX) at 600 dpi resolution. Colony formation was scored by quantifying the total optical density measured with ImageJ software, using a 24-well plate Region of Interest (ROI) mask (CFU, colony formation units). Data analysis was performed by normalisation on the vehicle treated of the respective plate set as =100. […] In the represented plots error bars are mean±SD."}, "[6]": {"tested_on": "SJ-G2 IDH1 wt and IDH1mt isogenic pairs", "assay": "Combination assay PARP inhibitor with VAL-083, SJ-G2 isogenic pairs", "assay_type": "cell-based", "protocol": "as §1, §2"}, "PARP1": {"biological_target": "PARP1 (Homo sapiens (Human), UniProt P09874)", "sequence (P09874 whole entry)": "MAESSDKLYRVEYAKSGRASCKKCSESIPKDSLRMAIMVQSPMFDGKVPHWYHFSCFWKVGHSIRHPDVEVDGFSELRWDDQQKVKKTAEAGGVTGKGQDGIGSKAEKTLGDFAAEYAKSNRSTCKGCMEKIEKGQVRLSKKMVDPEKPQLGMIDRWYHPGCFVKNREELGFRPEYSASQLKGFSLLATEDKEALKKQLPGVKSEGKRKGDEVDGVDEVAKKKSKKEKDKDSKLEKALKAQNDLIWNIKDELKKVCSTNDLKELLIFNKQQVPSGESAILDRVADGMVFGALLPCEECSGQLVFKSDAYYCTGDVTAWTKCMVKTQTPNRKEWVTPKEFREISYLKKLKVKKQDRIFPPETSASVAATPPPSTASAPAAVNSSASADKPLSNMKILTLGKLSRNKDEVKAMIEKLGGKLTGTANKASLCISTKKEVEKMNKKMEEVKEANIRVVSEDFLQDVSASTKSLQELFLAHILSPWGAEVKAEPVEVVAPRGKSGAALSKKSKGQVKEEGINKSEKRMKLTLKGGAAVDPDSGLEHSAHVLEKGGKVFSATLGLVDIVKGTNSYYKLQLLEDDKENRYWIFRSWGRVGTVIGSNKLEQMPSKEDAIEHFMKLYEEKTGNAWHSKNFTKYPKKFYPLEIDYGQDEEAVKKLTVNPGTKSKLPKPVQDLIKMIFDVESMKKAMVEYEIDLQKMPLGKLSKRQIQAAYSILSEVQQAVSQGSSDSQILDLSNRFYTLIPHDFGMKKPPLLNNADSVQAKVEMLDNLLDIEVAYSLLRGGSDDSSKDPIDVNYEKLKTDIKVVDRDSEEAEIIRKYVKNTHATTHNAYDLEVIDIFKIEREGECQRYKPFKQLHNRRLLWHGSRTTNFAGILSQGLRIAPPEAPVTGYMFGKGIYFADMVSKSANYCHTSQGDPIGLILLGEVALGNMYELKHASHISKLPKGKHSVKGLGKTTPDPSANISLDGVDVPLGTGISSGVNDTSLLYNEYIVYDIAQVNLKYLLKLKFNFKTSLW", "assay": "PARP1 trapping", "assay_type": "cell-based", "conditions": "data not shown"}, "U87 IDH1wt ATRXwt": {"tested_on": "U87 IDH1wt ATRXwt", "assay": "Monotherapy treatment, U87 IDH1wt ATRXwt", "assay_type": "cell-based", "conditions": "read-out: Compound 20 IC50", "protocol": "as §1, §2"}, "U87 IDH1 mt R132H": {"tested_on": "U87 IDH1 mt R132H", "assay": "Combination assay PARP inhibitor with TMZ, U87 IDH1mt", "assay_type": "cell-based", "protocol": "as §1, §2"}, "U87 IDH1 wt": {"tested_on": "U87 IDH1 wt", "assay": "Combination assay PARP inhibitor with TMZ, U87 IDH1 wt", "assay_type": "cell-based", "protocol": "as §1, §2"}},
  "data": [
    {"smiles": "CNC(=O)c1ccc(N2CCN(Cc3ccc4nc(C)c(=O)[nH]c4c3F)CC2)c(F)n1", "note": "[Example 20, 6-fluoro-5-[4-[(5-fluoro-2-methyl-3-oxo-4H-quinoxalin-6-yl)methyl]piperazin-1-yl]-N-methyl-pyridine-2-carboxamide]", "values": [
      {"measurement": "IC50", "setting": "SJ-G2 IDH1mt ATRXmt", "value": 1.75, "unit": "µM"},
      {"measurement": "combination effect with VAL-083", "setting": "[1]", "value": "synergises with VAL-083"},
      {"measurement": "IC50", "setting": "BRCA2 (−/−) DLD1 cells", "value": 0.008, "unit": "µM"},
      {"measurement": "IC50", "setting": "U87 IDH1mt ATRXwt", "value": "> 100", "unit": "µM"},
      {"measurement": "IC50", "setting": "SJ-G2 IDH1wt ATRXmt; SJ-G2, read-out: Compound 20 IC50", "value": 2.34, "unit": "µM"},
      {"measurement": "higher sensitivity compared to the ATRXwt U87 model", "setting": "SJ-G2 IDH1wt ATRXmt; SJ-G2 ATRXmt model, monotherapy", "value": "about 40 fold"},
      {"measurement": "IC95 for PARylation inhibition", "setting": "[2]", "value": 0.004, "unit": "µM"},
      {"measurement": "lowest PARP inhibitor concentration significantly enhancing the TMZ effect", "setting": "[3]", "value": 10, "unit": "nM"},
      {"measurement": "IC95 for PARylation inhibition", "setting": "[4]", "value": 0.008, "unit": "µM"},
      {"measurement": "IC50", "setting": "DLD1 cells", "value": "> 30", "unit": "µM"},
      {"measurement": "combination effect with ionizing radiation", "setting": "[5]", "value": "enhanced combination benefit"},
      {"measurement": "activity in the absence of VAL-083", "setting": "[6]; 1 μM Compound 20, ATRX mutant cell lines", "value": "has activity"},
      {"measurement": "combination effect with VAL-083", "setting": "[6]; SJ-G2 IDH1 wt and IDH1mt, ATRX mutant", "value": "enhanced combination benefit"},
      {"measurement": "lowest concentration with potent trapping of PARP1", "setting": "PARP1", "value": 10, "unit": "nM"},
      {"measurement": "IC50", "setting": "U87 IDH1wt ATRXwt", "value": "> 100", "unit": "µM"},
      {"measurement": "concentration at which Compound 20 synergises with TMZ", "setting": "U87 IDH1 mt R132H; U87 IDH1mt", "value": 1, "unit": "µM"},
      {"measurement": "lower concentration for synergy with TMZ in IDH1mt compared to wild type", "setting": "U87 IDH1 mt R132H; U87 IDH1mt vs IDH1 wt", "value": 10, "unit": "fold"},
      {"measurement": "concentration at which Compound 20 synergises with TMZ", "setting": "U87 IDH1 wt", "value": 10, "unit": "µM"}
    ]}
  ]
}
